# Reference: patent EP1247803A2, “Indolinone compounds suitable for modulation of protein kinases” (Sugen, Inc., priority 1996, dated 1998)
# Biological target: T1, EGFR (Homo sapiens, UniProt P00533)
# T1 construct: Add 7 ug A431 cell lysate per well (EGFR source); endogenous in cells; host or cells: A431
# Assay: EGFR ELISA assay (in vitro kinase activity, EGFR captured from A431 cell lysate)
# Format: biochemical
# Set-up: concentration or dose not given beside the values
# Procedure, shortened: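 EGFR from A431 lysate was captured on anti-EGFR antibody-coated plates and preincubated with compounds for 30 min. Autophosphorylation ran 5 min with 3 uM ATP and 5 mM MnCl2 (final), stopped with 20 mM EDTA. Phosphotyrosine was detected by anti-pTyr ELISA with ABTS/H2O2, read at 410 nm.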
# T1 sequence (P00533 25-1210): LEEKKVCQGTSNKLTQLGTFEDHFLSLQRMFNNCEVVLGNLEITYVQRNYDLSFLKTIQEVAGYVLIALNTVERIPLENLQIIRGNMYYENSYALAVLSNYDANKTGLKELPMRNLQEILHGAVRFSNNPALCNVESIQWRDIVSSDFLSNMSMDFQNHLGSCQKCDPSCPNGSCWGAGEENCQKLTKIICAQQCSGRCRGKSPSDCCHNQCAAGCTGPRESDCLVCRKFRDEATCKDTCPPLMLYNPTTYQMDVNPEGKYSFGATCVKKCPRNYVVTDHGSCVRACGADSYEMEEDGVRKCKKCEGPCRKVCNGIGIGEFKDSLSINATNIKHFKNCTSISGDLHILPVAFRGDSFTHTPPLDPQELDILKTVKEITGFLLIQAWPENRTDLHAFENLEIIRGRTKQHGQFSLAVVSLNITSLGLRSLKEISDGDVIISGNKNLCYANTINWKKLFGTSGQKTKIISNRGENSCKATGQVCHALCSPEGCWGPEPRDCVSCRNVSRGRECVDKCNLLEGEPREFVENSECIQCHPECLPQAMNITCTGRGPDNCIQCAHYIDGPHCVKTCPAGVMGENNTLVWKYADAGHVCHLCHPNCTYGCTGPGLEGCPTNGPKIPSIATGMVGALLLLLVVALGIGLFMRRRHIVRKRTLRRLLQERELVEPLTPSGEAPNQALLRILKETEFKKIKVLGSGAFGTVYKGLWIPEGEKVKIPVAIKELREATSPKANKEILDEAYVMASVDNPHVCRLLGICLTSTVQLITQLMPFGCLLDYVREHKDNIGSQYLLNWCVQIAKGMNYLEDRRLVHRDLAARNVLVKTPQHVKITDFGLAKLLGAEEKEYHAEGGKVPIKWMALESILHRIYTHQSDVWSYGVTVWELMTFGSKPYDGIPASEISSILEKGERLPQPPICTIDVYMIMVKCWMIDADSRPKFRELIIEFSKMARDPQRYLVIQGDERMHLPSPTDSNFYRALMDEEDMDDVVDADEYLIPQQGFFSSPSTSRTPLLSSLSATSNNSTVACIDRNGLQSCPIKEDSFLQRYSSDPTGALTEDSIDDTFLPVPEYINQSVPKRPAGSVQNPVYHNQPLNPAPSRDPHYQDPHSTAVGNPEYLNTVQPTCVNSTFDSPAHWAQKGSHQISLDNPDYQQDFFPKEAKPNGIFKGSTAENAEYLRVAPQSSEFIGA
row,SMILES,Biochem EGFR %Inhibition
1,O=C1Nc2ccc(S(=O)(=O)N3CCOCC3)cc2C1=Cc1ccc2ccccc2c1O [10718/F04],1.2%
2,Cc1c(O)ccc(C=C2C(=O)Nc3ccc(S(=O)(=O)N4CCOCC4)cc32)c1O [10718/F09],-9.5%
3,COc1cc(OC)c(C=C2C(=O)Nc3ccc(Br)c(C)c32)c(OC)c1 [10719/C06],-14.3%
4,O=C1Nc2ccc(S(=O)(=O)Nc3ccc(C(F)(F)F)cc3)cc2C1=Cc1cc(Br)cc(Br)c1O [10734/E07],82.4%
5,Cc1c(Br)ccc2c1C(=Cc1ccc(N(C)C)cc1)C(=O)N2 [10719/C08],-10.2%
6,O=C1Nc2c(Br)cc(Br)cc2C1=Cc1ccc(O)c(O)c1 [10719/A03],67.7%
7,O=C1Nc2ccc(CCCl)cc2C1=Cc1cc(Cl)ccc1O [10734/G04],62.9%
8,CCN(CC)c1ccc(C=C2C(=O)Nc3ccc(S(=O)(=O)Nc4ccc(C(F)(F)F)cc4)cc32)c(O)c1 [10734/E05],7.9%
9,CCN(CC)c1ccc(C=C2C(=O)Nc3ccc(S(=O)(=O)N4CCOCC4)cc32)c(O)c1 [10734/F05],-15.6%
10,O=C1Nc2ccc(I)cc2C1=Cc1ccc(F)cc1 [10717/B05],31.7%
11,CC(C)(C)c1ccc(C=C2C(=O)Nc3ccc(S(=O)(=O)Nc4ccc(C(F)(F)F)cc4)cc32)cc1 [10734/E10],-5.0%
12,COc1ccc(C=C2C(=O)Nc3c(Br)cc(Br)cc32)c(OC)c1 [10719/A04],43.7%
13,CCOC(=O)CCc1c(C(=O)OCC)[nH]c(C=C2C(=O)Nc3ccc(S(=O)(=O)N4CCOCC4)cc32)c1CC(=O)OCC [10718/F05],-4.9%
14,O=C1Nc2ccc(S(=O)(=O)N3CCOCC3)cc2C1=Cc1cc(Cl)cc(Cl)c1O [10734/F03],24.8%
15,O=C1Nc2ccc(I)cc2C1=Cc1cccs1 [10717/B03],7.3%
16,COc1cc(Br)c(O)c(C=C2C(=O)Nc3ccc(S(=O)(=O)N4CCOCC4)cc32)c1 [10718/F03],22.5%
17,O=C1Nc2c(Br)cc(Br)cc2C1=Cc1ccc(F)cc1Cl [10719/A09],2.2%
18,O=C1Nc2ccc(S(=O)(=O)Nc3ccc(C(F)(F)F)cc3)cc2C1=Cc1cccc(F)c1O [10734/E08],24.2%
19,CCOc1cccc(C=C2C(=O)Nc3ccc(CCCl)cc32)c1O [10734/G02],3.4%
20,O=C1Nc2ccc(S(=O)(=O)N3CCOCC3)cc2C1=Cc1cc(Br)cc(Br)c1O [10734/F07],33.7%
21,O=C1Nc2ccc(CCCl)cc2C1=Cc1cc(Cl)cc(Cl)c1O [10734/G03],82.8%
22,O=C1Nc2ccc(CCCl)cc2C1=Cc1ccc(Br)s1 [10734/G11],4.1%
23,Cc1c(Br)ccc2c1C(=Cc1ccc(O)cc1)C(=O)N2 [10719/C07],14.4%
24,O=C1Nc2ccc(CCCl)cc2C1=Cc1ccc([N+](=O)[O-])o1 [10718/G11],-4.9%
25,O=C1Nc2c(Br)cc(Br)cc2C1=Cc1cccc([N+](=O)[O-])c1 [10719/A10],8.2%
26,CCOc1ccc(C=C2C(=O)Nc3c(Br)cc(Br)cc32)cc1OC [10719/A02],43.0%
